# According to PubChem BioAssay AID651717 (Broad Institute, 2012):
# Tested on: mESC Bmi1-luciferase reporter, firefly/renilla ratio, 24 h
# Experiment: compounds raising Bmi1 reporter signal – mouse embryonic stem cells, luciferase, cherry-pick, esBAF inhibitor project, dose response (AID 651717);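 further: luciferase knocked into Bmi1 locus with EF-1a renilla as cell number control; rising ratio signals esBAF inhibition which derepresses Bmi1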
row,SMILES,AC40 [µM]
1,COc1ccc(N2CCN(C(=O)c3ccc(Cn4c(=S)[nH]c5ccc(N6CCOCC6)cc5c4=O)cc3)CC2)cc1,6.15
2,Cc1ccc(C(=O)Nc2cccc(O)c2)cc1S(=O)(=O)N1CCCCCC1,14.5
3,Cc1ccc(C2/C(=C(/O)c3cnn(-c4ccccc4)c3C)C(=O)C(=O)N2CCN2CCOCC2)o1 (stereo unspecified),8.69
4,O=C(Nc1cccnc1Cl)c1cc(-c2ccccc2O)on1,1.09
5,C(=N\N1CCN(c2ccccc2)CC1)/c1ccccc1,4.79
6,CC(Cc1cccs1)NC(=O)c1cccc(Cl)c1 (stereo unspecified),2.76
7,COc1cc(Cl)c(C)cc1NC(=O)c1cccc(OC)c1OC,6.31
8,CCCCN1C(=S)NC[C@@H]1Cc1cccc2ccccc12,17.3
9,CN(C)c1cccc(-c2csc(N3CCC(C(N)=O)CC3)n2)c1,0.362
10,O=c1oc(-c2ccccc2)cc2ccccc12,3.89
11,COc1cccc(-c2noc(C3CCCN(C(=O)CC(C)(C)C)C3)n2)c1 (stereo unspecified),6.48
12,Cc1ccc(C(=O)Nc2ccc3c(c2)OCO3)cc1S(=O)(=O)N1CCCCC1,1.69
13,O=C(COC(=O)[C@H](Cc1c[nH]c2ccccc12)NC(=O)c1ccc(Cl)cc1)Nc1ccc2c(c1)OCO2,10.5
14,O=C(O)c1ccc2noc(-c3ccccc3)c2c1,1.54
15,Cc1ccc(NC(=O)NC(=O)N(c2ccccc2)S(C)(=O)=O)cc1,7.14
16,CC(C)(C)C(=O)N1CCN(c2nc3ccc(Br)cc3s2)CC1,1.53
17,Cn1c(/C(C#N)=C(\O)c2ccc(Cl)s2)nc2ccccc21,3.09
18,Cc1ccc2[nH]c(C(=O)N3CCCCC3)cc2c1,6.79
19,O=C(Nc1cccc(O)c1)c1ccc(Br)cc1,2.45
20,CC(=O)c1ccc(N2CCN(C(=O)c3ccc(Cn4c(=S)[nH]c5ccc(N6CCOCC6)cc5c4=O)cc3)CC2)cc1,24.8
21,COc1ccc(-c2csc(C(O)c3ccccc3)n2)cc1 (stereo unspecified),5.06
22,COc1ccccc1C(=O)Nc1cccc2cccnc12,13.9

row,SMILES,AC40 [µM]
1,Cc1[nH]c2ccccc2c(=O)c1CN(C)Cc1ccccc1,10.4
2,CCSc1ccc(/C(N)=N/OC(=O)c2cccs2)cn1,8.66
3,CC(C)c1ccc(-c2nn(-c3ccccc3)cc2C2C(C#N)=C(N)OC3=C2C(=O)CC(C)(C)C3)cc1 (stereo unspecified),29.1
4,COc1ccc(-c2ccc3n2Cc2cnnn2-c2ccccc2-3)cc1,4.57
5,COc1ccc(CNC(=O)Nc2cccc(C)c2)cc1,5.8
6,COc1ccc(Cc2nnc(NC(=O)c3ccc(OC)cc3OC)s2)cc1,12.5
7,O=C(Cc1ccc(Cl)cc1)c1ccccc1,1.84
8,COc1ccc(NC(=O)CCC(=O)Nc2ccc3nc(N4CCOCC4)cc(C)c3c2)c(OC)c1,6.04
9,Cc1nc(-c2ccc(Cl)cc2)sc1C1(C)CC(c2cccnc2)=NO1 (stereo unspecified),5.57
10,COc1ccccc1C(=O)NCCC(=O)NC1CCC(C)CC1 (stereo unspecified),4.6
11,OC(c1ccccc1)c1nc(-c2ccc3c(c2)OCO3)cs1 (stereo unspecified),3.37
12,Cc1cc(C(=O)Cn2cnc3ccccc3c2=O)c(C)n1C1CC1,2.92
13,C(=Cc1cnnc2ccccc12)c1ccccc1,1.23
14,COc1ccc2c(=O)c3ccccc3oc2c1,4.7
15,CCn1c(O)c(/C=C2\C=Nc3ccccc32)sc1=Nc1ccccc1,14.2
16,Nc1nc(SCc2ccccc2)cc(SCc2ccccc2)n1,4.44
17,O=C(Cn1c(/C=C/c2ccccc2)nc2ccccc21)Nc1ccc(F)cc1,2.78
18,O=C(Nc1ccccc1)c1cc(C2CCCCN2S(=O)(=O)c2cccs2)on1 (stereo unspecified),9.04
19,COc1ccc(C(=O)Nc2cc3c4c(c2)CC(=O)N4CCC3)c(OC)c1,5.13
20,O=C(Nc1ccccn1)c1ccc(Cl)c(S(=O)(=O)N2CCCC2)c1,14.6
21,CN1CCN(C(=O)C[C@@H]2CC[C@@H]3[C@H](COC[C@@H](O)CN3C(=O)Nc3ccc4c(c3)OCO4)O2)CC1,24.2
22,Cc1ccc2c(COC(=O)C34CC5CC(CC(C5)C3)C4)cc(=O)oc2c1,3.95

row,SMILES,AC40 [µM]
1,O=C1c2ccccc2CN1c1ccccc1,3.89
2,Cc1ccc2sc(NC(=O)C3CC3)nc2c1C,6.72
3,COc1cccc(OCc2cc(C(=O)N3CCN(C(C)=O)CC3)no2)c1,3.15
4,CSc1ccccc1NC(=O)c1ccc(N2CCCC2=O)cc1,2.01
5,O=C1NC(=Nc2ccccc2)S/C1=C\c1cccn1-c1ccccc1,2.43
6,CC(=O)Nc1ccc2c(c1Br)Cc1ccccc1-2,2.53
7,CC(=O)c1ccc(NC(=O)c2cc(C)nc3ccccc23)cc1,3.55
8,CC(C)Cc1ccc(-c2ccc3nccn3c2)cc1,1.94
9,O=C(Nc1ccc2c(c1)C(=O)c1ccccc1-2)c1ccccc1,1.08
10,O=C(Nc1cccc(O)c1)c1ccc(Br)c(S(=O)(=O)N2CCCCC2)c1,17.6
11,Cc1ccc(OCc2cc(C(=O)NC(C)Cc3cccnc3)no2)cc1C (stereo unspecified),1.8
12,CC1CCCC(C)N1C(=O)c1cc(-c2ccc(Cl)c(Cl)c2)on1 (stereo unspecified),6.88
13,Oc1cccc(Nc2nc(O)c(/C=C3\C=Nc4ccccc43)s2)c1,4.88
14,COc1ccc(C(=O)Nc2ccc(C3CC3(Cl)Cl)cc2)cc1 (stereo unspecified),7.09
15,O=C(CCc1nnc(C2(c3ccc(Cl)cc3)CCC2)o1)N1CCCC1,3.99
16,Cc1cc(F)ccc1-c1cc(C(=O)Nc2ccc(F)cc2)[nH]n1,0.757
17,S=c1[nH]nc(SCc2ccccc2)c2[nH]cnc12,5.52
18,O=C(Nc1ccc(F)cc1F)NC1CCCCCCC1,5.14
19,COc1ccc(C(=O)N2CCc3ccccc32)cc1,5.97
20,O=c1[nH]cnc2nc(-c3ccc(N(CCCl)CCCl)cc3)[nH]c12,0.965
21,Cc1ccc(CN2CC(C(=O)Nc3cc(C)ccn3)CC2=O)cc1 (stereo unspecified),1.48
22,COc1ccc(OCc2cc(C(=O)NC(C)Cc3cnccn3)no2)c(Cl)c1 (stereo unspecified),5.42

row,SMILES,AC40 [µM]
1,Cc1ccc(NC(=O)O/N=C/c2ccc(N(C)C)cc2)cc1,16.6
2,CCSc1nnc(Nc2ccccc2)s1,11.1
3,Cc1ccc(NC(=O)C2CCN(S(=O)(=O)c3ccc4ccccc4c3)CC2)nc1,6.53
4,CCCn1cnc2c(SCCc3ccccc3)nc(N)nc21,7.67
5,O=C(O)c1cc(-c2ccc(-c3c(-c4ccc5c(c4)OCO5)noc3-c3ccsc3)cc2)nc2ccccc12,6.89
6,O=P(O)(O)c1ccccc1OCCOCCOCCOCCOc1ccccc1P(=O)(O)O,8.04
7,Clc1ccc(-c2csc(N3CCSCC3)n2)cc1,5.65
8,Cc1ccc(NC(=O)Nc2ccc(F)cc2)cc1Cl,3.4
9,COc1ccc(C2Nc3ccccc3C(=O)N2c2ccc(C)cc2)cc1Cn1nc(C)c([N+](=O)[O-])c1C (stereo unspecified),12.6
10,Cc1csc(NC(=O)Cc2ccc(F)cc2)n1,7.58
11,CN(C)c1ccc(N=Nc2ccccc2C(=O)OCC(=O)Nc2ccccc2C(F)(F)F)cc1,4.61
12,CCC(=O)c1ccc(N2CCCC2)c(F)c1,6.47
13,CCCN1C[C@@H](C)[C@H](OC)CN(C)C(=O)c2cc(NC(=O)c3ccccc3F)ccc2OC[C@H]1C,5.77
14,Nc1ccccc1/C=C/c1ccccc1N,2.4
15,COc1ccccc1NC(=O)Nc1nc(CC(=O)Nc2ccc(N(C)C)cc2)cs1,8.78
16,O=C1C(=Cc2ccccn2)CCc2ccccc21,20.1
17,Cc1ccc(NC(=O)C2CCCN(c3ncccn3)C2)cc1C (stereo unspecified),4.21
18,C=CCN(C(=O)CC(NC(C)=O)c1ccccc1)c1nc(-c2ccc(S(C)(=O)=O)cc2)cs1 (stereo unspecified),0.992
19,c1ccc(-c2cnnc(N3CCCCC3)n2)cc1,1.99
20,O=C(Nc1nc2c(s1)CCc1ccccc1-2)c1cccs1,0.9
